Experimental data taken from patent publication US6864217B2, “Herbicidal compositions with substituted phenylsulfonylureas for controlling weeds in rice” (Hoechst Schering AgrEvo GmbH, priority 1998, dated 2005).

What was measured:
Assay type in all cases: in vivo
[1] = system: Oryza sativa; assay: Table 17 field trial, treatment at the 2 leaf stage: rice damage; details: 14 days after application
Source text: (§1) Field trial: Treatment at the 2 leaf stage, evaluation 14 days after the application.

[2] = system: Echinochloa crusgalli; assay: Table 17 field trial, treatment at the 2 leaf stage: weed control; details: 14 days after application
Source text: as §1

[3] = system: Oryza sativa; assay: Table 21 field trial, treatment at the 2 leaf stage: rice damage
Source text: (§2) Field trial: Treatment at the 2 leaf stage, evaluation 28 days after the application.

[4] = system: Cyperus serotinus; assay: Table 21 field trial, treatment at the 2 leaf stage: weed control; details: 28 days after application
Source text: as §2

[5] = system: Oryza sativa; assay: Table 6 field trial, treatment at the 1-2 leaf stage: rice damage; details: in vivo
Protocol: (§5) The examples mentioned below were carried out in the greenhouse, and in some instances, in field trials.

[6] = system: Echinochloa crusgalli; assay: Table 6 field trial, treatment at the 1-2 leaf stage: weed control; details: 28 days after application
Protocol: as §5

[7] = system: Sagittaria pygmaea; assay: Table 22 field trial, treatment: 1-2 leaf stage: weed control; details: 28 days after application
Source text: Field trial: Treatment: 1-2 leaf stage, evaluation 28 days after the application.

[8] = system: Oryza sativa; assay: Table 7 field trial, treatment at the 1-2 leaf stage: rice damage; details: 28 days after application
Protocol: as §5

[9] = system: Echinochloa crusgalli; assay: Table 8 greenhouse trial, treatment at the 1-2 leaf stage: weed control; details: 22 days after application
Source text: (§3) Seeds or rhizome pieces of mono- and dicotyledonous weed plants are placed into sandy loam soil in plastic pots, covered with soil and grown in a greenhouse under good growth conditions (temperature, atmospheric humidity, water supply). Weeds which are encountered in the cultivation of rice are cultivated in pots in which the water level is up to 2 cm over the soil surface. […] The active compound combinations according to the invention, formulated as wettable powders or emulsion concentrates, and, in parallel experiments, the correspondingly formulated individual active compounds are sprayed onto the green parts of the plants at different dosages using an amount of water of 300 to 600 l/ha (converted), and, after about 3 to 4 weeks of the test plants in the greenhouse under optimum growth conditions (temperature, atmospheric humidity, water supply), the effect of the preparations is evaluated visually in comparison to untreated controls. In the case of rice or weeds which are encountered in the cultivation of rice, the active compounds are also added directly to the water for irrigation (application analogous to the so-called granules application) or sprayed onto plants and added to the water for irrigation. The experiments were designed with several, up to five, repetitions. The herbicidal compositions according to the invention also have good herbicidal post-emergence activity against a broad spectrum of economically important weed grasses and broad-leaved weeds.

[10] = system: Marsilea crenata; assay: Table 7 field trial, treatment at the 1-2 leaf stage: weed control; details: 28 days after application
Protocol: as §5

[11] = system: Oryza sativa; assay: Table 8 greenhouse trial, treatment at the 1-2 leaf stage: rice damage; details: 22 days after application
Source text: as §3

[12] = system: Echinochloa crusgalli; assay: Table 7 field trial, treatment at the 1-2 leaf stage: weed control; details: 28 days after application
Protocol: as §5

[13] = system: Oryza sativa; assay: Table 20 field trial, treatment at the 4-6 leaf stage: rice damage; details: 28 days after application
Source text: (§4) Field trial: Treatment at the 4-6 leaf stage, evaluation 28 days after the application.

[14] = system: Ipomoea hederacea; assay: Table 20 field trial, treatment at the 4-6 leaf stage: weed control; details: 28 days after application
Source text: as §4

Compound: CCOC(=O)C(Cl)Cc1cc(-n2nc(C)n(C(F)F)c2=O)c(F)cc1Cl (racemic) [B38), ethyl (RS)-2-chloro-3-[2-chloro-5-(4-difluoromethyl-4,5-dihydro-3-methyl-5-oxo-1H-1,2,4-,triazol-1-yl)-4-fluorophenyl]propionate]
- ORYSW % damage ([1]; 7.5 g of ai/ha): 0%
- ORYSW % damage ([1]; 15 g of ai/ha): 0%
- ORYSW % damage ([1]; 30 g of ai/ha): 0%
- ECHCG % control ([2]; 7.5 g of ai/ha): 50%
- ECHCG % control ([2]; 15 g of ai/ha): 52%
- ECHCG % control ([2]; 30 g of ai/ha): 52%

Compound: CCC1(CC2(c3cccc(Cl)c3)CO2)C(=O)c2ccccc2C1=O (racemic) [B71), (RS)-2-[2-(3-chlorophenyl)-2,3-epoxypropyl]-2-ethyl-indane-1,3-dione]
- ORYSW % damage ([3]; in vivo): 4%
- CYPSE % control ([4]; 150 g of ai/ha): 55%

Compound: CCCCOCN(C(=O)CCl)c1c(CC)cccc1CC [B1), N-(butoxymethyl)-2-chloro-N-(2,6-diethylphenyl)acetamide]
- ORYSW % damage [5]: 0%
- ECHCG % control ([6]; 300 g of ai/ha): 81%
- ECHCG % control ([6]; 600 g of ai/ha): 89%

Compound: CN(C(=O)COc1nc2ccccc2s1)c1ccccc1 [B5), 2-(2-benzothiazolyloxy)-N-methyl-N-phenylacetamide]
- SAGPY % control ([7]; 600 g of ai/ha): 0%
- SAGPY % control ([7]; 1200 g of ai/ha): 0%
- SAGPY % control ([7]; 2400 g of ai/ha): 0%

Compound: CCC(=O)Nc1ccc(Cl)c(Cl)c1 [B7), N-(3,4-dichlorophenyl)propanamide]
- ORYSW % damage ([8]; 1000 g of ai/ha): 0%
- ORYSW % damage ([8]; 2000 g of ai/ha): 0%
- ECHCG % control ([9]; 1250 g of ai/ha): 0%
- ECHCG % control ([9]; 2500 g of ai/ha): 0%
- ECHCG % control ([9]; 5000 g of ai/ha): 10%
- MASCR % control ([10]; 1000 g of ai/ha): 0%
- MASCR % control ([10]; 2000 g of ai/ha): 0%
- ORYSW % damage ([11]; 1250 g of ai/ha): 0%
- ORYSW % damage ([11]; 2500 g of ai/ha): 0%
- ORYSW % damage ([11]; 5000 g of ai/ha): 0%
- ECHCG % control ([12]; 1000 g of ai/ha): 79%
- ECHCG % control ([12]; 2000 g of ai/ha): 88%

Compound: CC(C)(SC(=O)N1CCCCC1)c1ccccc1 [B9), S-(1-methyl-1-phenylethyl)1-piperidincarbothioate]
- ORYSW % damage ([3]; 3000 g of ai/ha, field trial, 28 days after application): 5%
- CYPSE % control ([4]; 3000 g of ai/ha): 45%

Compound: CCSC(=O)N1CCCCCC1 [B10), S-ethyl hexahydro-1H-azepin-1-carbothioate]
- ORYSW % damage ([13]; 4480 g of ai/ha): 0%
- IPOHE % control ([14]; 4480 g of ai/ha): 55%

Compound: CCN(CC)C(=O)SCc1ccc(Cl)cc1 [B11), S-[(4-chlorophenyl)methyl]diethylcarbamothioate]
- ORYSW % damage ([13]; 3300 g of ai/ha): 3%
- IPOHE % control ([14]; 3300 g of ai/ha): 43%

Compound: COc1cccc(N(C)C(=S)Oc2cccc(C(C)(C)C)c2)n1 [B12), O-[3-(1,1-dimethylethyl)phenyl](6-methoxy-2-pyridinyl)methylcarbamothioate]
- ORYSW % damage ([3]; 600 g of ai/ha, field trial, 28 days after application): 3%
- CYPSE % control ([4]; 600 g of ai/ha): 65%
